Measured values: patent US12729405B2, “Method and kit for determining benefit of chemotherapy” (St. Jude Children's Research Hospital, Inc., priority 2019, dated 2026)
Read-outs that look alike come from different tables or passages of the source.

Assays:
primary human ALL cells = assay: cells; conditions: for response of dasatinib-sensitive primary T-ALL cases to other ABL inhibitors: subset of primary T-ALL samples (N=18); for response of dasatinib-resistant T-ALL: dasatinib-resistant T-ALL cases, as well as cell lines
Experimental: Ex vivo Leukemia Drug Sensitivity Assay. Drug response of primary human ALL cells was evaluated using a co-culture system and flow cytometry assays. hTERT-immortalized mesenchymal stem cells ([…] Wang, et al. (2019) Nat. Commun. 10:3718) were first seeded in a 96-well plate format at a density of 10,000 cells per well in 100 μL of complete medium (RPMI-1640, L-glutamine, 10% fetal bovine serum and 1 μM Hydrocortisone). After 24 hours, leukemia cells were added at 160,000 cells per well to the stromal cell layer in 80 μL AIM-V medium along with 20 μL of drug solution prepared in the same medium. […] After 96 hours incubation at 37° C. with 5% CO2, cells were harvested and stained with CD19 or CD7 to identify leukemia blasts (for B-ALL and T-ALL, respectively). The total number of live leukemia cells were evaluated by using flow cytometry after Annexin V and DAPI staining. Drug-induced death was estimated by comparing to leukemia cells treated with the vehicle alone. The drug concentration that killed 50% of the leukemia cells (LC50 value) was determined using a dose-response model and as a measurement of drug sensitivity. Quality control was performed to remove cases with low viability (less than 1000 viable blast cells in each well in the absence of drugs on day 4).

[1] = dasatinib dosing for CML, oral twice a day; cited from earlier work

## Cc1cn(-c2cc(NC(=O)c3ccc(C)c(Nc4nccc(-c5cccnc5)n4)c3)cc(C(F)(F)F)c2)cn1 [nilotinib]
Primary human ALL cells
  response of dasatinib-sensitive primary T-ALL cases to other ABL inhibitors: universally resistant

## COc1ccc(N(C(=O)Oc2c(C)cccc2C)c2ccnc(Nc3ccc(N4CCN(C)CC4)cc3)n2)c(OC)c1 [WH 4-023]
Primary human ALL cells
  cytotoxicity in dasatinib-sensitive cases: potent cytotoxicity
  response of dasatinib-resistant T-ALL: largely did not respond

## COC(=O)c1ccc2c(c1)NC(=O)/C2=C(\Nc1ccc(N(C)C(=O)CN2CCN(C)CC2)cc1)c1ccccc1 [nintedanib]
Primary human ALL cells
  cytotoxicity in dasatinib-sensitive cases: potent cytotoxicity
  response of dasatinib-resistant T-ALL: largely did not respond

## Cc1nc(Nc2ncc(C(=O)Nc3c(C)cccc3Cl)s2)cc(N2CCN(CCO)CC2)n1 [dasatinib]
Primary human ALL cells; 45 T-ALL cases, cutoff LC50 80 nM, 15 cases
  T-ALL cases classified as dasatinib-sensitive: 33.3%
Primary human ALL cells; Homo sapiens, 96 h, read-out: LC50 (mean), cases with high LC50, ALL samples, high-LC50 mode of bimodal distribution, 96 hours
  CC50: 12000 nM
Primary human ALL cells; Homo sapiens, 96 h, read-out: LC50 (mean), cases with low LC50, ALL samples (352 children and adults), low-LC50 mode of bimodal distribution, 96 hours
  CC50: 5.92 nM
Primary human ALL cells; Homo sapiens, read-out: LC50 (range), cases with high LC50, ALL samples, high-LC50 mode, 20000 nM is the assigned ceiling
  CC50: 102 to 20000 nM
Primary human ALL cells; Homo sapiens, read-out: LC50, one T-ALL case with TCF7-SP1 fusion, 0.05 nM is the assigned floor value
  CC50: ≤ 0.05 nM
Primary human ALL cells; Homo sapiens, read-out: LC50, two additional T-ALL cases with the same SPI1 fusion gene, ex vivo
  CC50: 0.05 nM
Primary human ALL cells; adults with T-ALL, cutoff LC50 80 nM
  dasatinib-sensitive T-ALL in adults: 16.7%
Primary human ALL cells; children with T-ALL, cutoff LC50 80 nM
  dasatinib-sensitive T-ALL in children: 44.4%
Primary human ALL cells; human, 96 h
  CC50: 0.05 to 79.4 nM
[1]
  Cmax: 60 to 120 nM

## Cc1ccc(NC(=O)c2ccc(CN3CCN(C)CC3)cc2)cc1Nc1nccc(-c2cccnc2)n1 [imatinib]
Primary human ALL cells
  response of dasatinib-sensitive primary T-ALL cases to other ABL inhibitors: universally resistant
